Test results as given in US20250296959A1, “B7-H3 TARGETING PEPTIDES AND CONSTRUCTS THEREOF” (Mariana Oncology Inc., priority 2024, published 2025).
Starred links: 1 amine or outer side, 2 acyl side, 3 side chain; linkers in the order of their positions; H or OH if unused. Positions of bridges follow the written chain, without caps; N, C: chain ends. Non-standard residues stand in square brackets, D forms with d. Residues, ends and D or L forms follow the SMILES beside them. ξ: configuration not given here. *: point of attachment. Ala(piperidin-4-yl) = O=C([C@H](CC1CCN([*:3])CC1)N[*:1])[*:2]; DOTA = O=C(O)CN1CCN(CC(=O)O)CCN(CC(=O)*)CCN(CC(=O)O)CC1; Trp(4-Cl) = N[C@@H](Cc1c[nH]c2cccc(Cl)c12)C(=O)O; Trp(5-Cl) = N[C@@H](Cc1c[nH]c2ccc(Cl)cc12)C(=O)O; Trp(5-F) = N[C@@H](Cc1c[nH]c2ccc(F)cc12)C(=O)O; X1 = C[C@@H](c1ccccc1)[C@H](N[*:1])C(=O)[*:2]; 2Nal = N[C@@H](Cc1ccc2ccccc2c1)C(=O)O; Ala(4-THP) = N[C@@H](CC1CCOCC1)C(=O)O; Val(3-OH) = CC(C)(O)[C@H](N)C(=O)O; 4Pal = N[C@@H](Cc1ccncc1)C(=O)O; Tle = CC(C)(C)[C@H](N)C(=O)O; hLeu = CC(C)CC[C@H](N)C(=O)O; hSer = N[C@@H](CCO)C(=O)O; Nle = CCCC[C@H](N)C(=O)O; ξV = CC(C)C(N)C(=O)O; Sar = CNCC(=O)O

These molecules were tested against T1, human 4lg B7-H3 (Homo sapiens, UniProt Q5ZPR3) (assay: Affinity determination by surface plasmon resonance (SPR) to 4Ig B7-H3). Conditions: SPR KD—25° C., 4Ig B7-H3; 25° C. flow cell temperature.
T1 sequence (Q5ZPR3 29-534): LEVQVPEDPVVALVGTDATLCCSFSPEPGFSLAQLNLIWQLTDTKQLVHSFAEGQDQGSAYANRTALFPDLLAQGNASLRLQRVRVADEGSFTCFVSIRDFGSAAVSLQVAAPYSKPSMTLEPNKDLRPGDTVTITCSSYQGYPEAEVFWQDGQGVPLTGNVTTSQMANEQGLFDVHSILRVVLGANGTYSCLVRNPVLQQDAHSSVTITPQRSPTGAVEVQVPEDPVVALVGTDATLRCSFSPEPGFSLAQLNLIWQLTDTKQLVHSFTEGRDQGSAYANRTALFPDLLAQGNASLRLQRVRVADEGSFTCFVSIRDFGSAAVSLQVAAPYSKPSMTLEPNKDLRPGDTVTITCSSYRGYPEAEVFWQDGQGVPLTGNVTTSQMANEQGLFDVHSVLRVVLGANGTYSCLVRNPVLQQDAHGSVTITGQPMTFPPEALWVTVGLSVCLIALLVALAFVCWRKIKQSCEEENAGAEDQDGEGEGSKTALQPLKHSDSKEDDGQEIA

Kd [nM]	Structure (SMILES)
1 to 10	CCCC[C@H](NC(C)=O)C(=O)N[C@@H](Cc1ccc(O)cc1)C(=O)N[C@H]1CSSC[C@@H](C(=O)N[C@@H](Cc2c[nH]c3ccccc23)C(=O)N[C@@H](Cc2ccccc2)C(=O)N[C@@H](CO)C(=O)N[C@H](CCCCNC(=O)CN2CCN(CC(=O)O)CCN(CC(=O)O)CCN(CC(=O)O)CC2)C(N)=O)NC(=O)[C@H](Cc2ccc(O)cc2)NC(=O)[C@H](C(C)C)NC(=O)[C@H](CC(=O)O)NC(=O)[C@H](Cc2ccc(O)cc2)NC(=O)[C@H](CCCCN)NC(=O)CNC(=O)[C@H](C(C)C)NC1=O [compound 92, Ac-Nle-Y-C-V-G-K-Y-D-V-Y-C-W-F-Ser-dLys(DOTA)-CONH2] (Ac-[Nle]YCVGKYDVYCWFS[dK](DOTA)-NH2; disulfide 3-11)
< 1	CC(=O)N[C@@H](CCC(C)C)C(=O)N[C@@H](Cc1ccc(O)cc1)C(=O)N[C@H]1CSSC[C@@H](C(=O)N[C@@H](Cc2c[nH]c3ccc(F)cc23)C(=O)N[C@@H](Cc2ccccc2)C(=O)N[C@H](C(=O)N[C@H](CCCCNC(=O)CN2CCN(CC(=O)O)CCN(CC(=O)O)CCN(CC(=O)O)CC2)C(=O)O)[C@@H](C)O)NC(=O)[C@H](Cc2ccc(O)cc2)NC(=O)[C@H](C(C)C)NC(=O)[C@H](CC(=O)O)NC(=O)[C@H](CC2CCOCC2)NC(=O)[C@H](CCCCN)NC(=O)CN(C)C(=O)[C@H](C(C)C)NC1=O [compound 362, Ac-hLeu-Y-C-V-Sar-K-ThpA-D-V-Y-C-5FW-F-Thr-dLys(DOTA)-COOH] (Ac-[hLeu]YCV[Sar]K[Ala(4-THP)]DVYC[Trp(5-F)]FT[dK](DOTA)-OH; disulfide 3-11)
1 to 10	CCCC[C@H](NC(C)=O)C(=O)N[C@@H](Cc1ccc(O)cc1)C(=O)N[C@H]1CSSC[C@@H](C(=O)N[C@@H](Cc2c[nH]c3ccccc23)C(=O)N[C@@H](Cc2ccccc2)C(=O)N[C@H](C(=O)N[C@H](CCCCNC(=O)CN2CCN(CC(=O)O)CCN(CC(=O)O)CCN(CC(=O)O)CC2)C(N)=O)[C@@H](C)O)NC(=O)[C@H](Cc2ccc(O)cc2)NC(=O)[C@H](C(C)C)NC(=O)[C@H](CC(=O)O)NC(=O)[C@H](Cc2ccncc2)NC(=O)[C@H](CCCCN)NC(=O)CNC(=O)[C@H](C(C)C)NC1=O [compound 58, Ac-Nie-Y-C-V-G-K-4PyA-D-V-Y-C-W-F-Thr-dLys(DOTA)-CONH2] (Ac-[Nle]YCVGK[4Pal]DVYCWFT[dK](DOTA)-NH2; disulfide 3-11)
1 to 10	CC(=O)N[C@@H](CCC(C)C)C(=O)N[C@@H](Cc1ccc(O)cc1)C(=O)N[C@H]1CSSC[C@@H](C(=O)N[C@@H](Cc2c[nH]c3ccc(Cl)cc23)C(=O)N[C@@H](Cc2ccccc2)C(=O)N[C@H](C(=O)N[C@H](CCCCNC(=O)CN2CCN(CC(=O)O)CCN(CC(=O)O)CCN(CC(=O)O)CC2)C(N)=O)[C@@H](C)O)NC(=O)[C@H](Cc2ccc(O)cc2)NC(=O)[C@H](C(C)C)NC(=O)[C@H](CC(=O)O)NC(=O)[C@H](Cc2ccc(O)cc2)NC(=O)[C@H](CCCCN)NC(=O)CNC(=O)[C@H](C(C)(C)C)NC1=O [compound 235, Ac-hLeu-Y-C-Tbg-G-K-Y-D-V-Y-C-5ClTrp-F-Thr-dLys(DOTA)-CONH2] (Ac-[hLeu]YC[Tle]GKYDVYC[Trp(5-Cl)]FT[dK](DOTA)-NH2; disulfide 3-11)
100 to 300	CCCC[C@H](NC(C)=O)C(=O)N[C@@H](Cc1ccc(O)cc1)C(=O)N[C@H]1CSSC[C@@H](C(=O)N[C@@H](Cc2ccc3ccccc3c2)C(=O)N[C@@H](Cc2ccccc2)C(=O)N[C@H](C(=O)N[C@H](CCCCNC(=O)CN2CCN(CC(=O)O)CCN(CC(=O)O)CCN(CC(=O)O)CC2)C(N)=O)[C@@H](C)O)NC(=O)[C@H](Cc2ccc(O)cc2)NC(=O)C(C(C)C)NC(=O)[C@H](CC(=O)O)NC(=O)[C@H](Cc2ccc(O)cc2)NC(=O)[C@H](CCCCN)NC(=O)CNC(=O)[C@H](C(C)C)NC1=O (stereo partly drawn) [compound 129, Ac-Nle-Y-C-V-G-K-Y-D-V-Y-C-2Nal-F-Thr-dLys(DOTA)-CONH2] (Ac-[Nle]YCVGKYD[ξV]YC[2Nal]FT[dK](DOTA)-NH2; disulfide 3-11)
1 to 10	CC(=O)N[C@@H](CCC(C)C)C(=O)N[C@@H](Cc1ccc(O)cc1)C(=O)N[C@H]1CSSC[C@@H](C(=O)N[C@@H](Cc2c[nH]c3ccc(F)cc23)C(=O)N[C@@H](Cc2ccccc2)C(=O)N[C@H](C(=O)N[C@H](CCCCNC(=O)CN2CCN(CC(=O)O)CCN(CC(=O)O)CCN(CC(=O)O)CC2)C(N)=O)[C@@H](C)O)NC(=O)[C@H](Cc2ccc(O)cc2)NC(=O)[C@H](C(C)C)NC(=O)[C@H](CC(=O)O)NC(=O)[C@H](CCO)NC(=O)[C@H](CCCCN)NC(=O)CNC(=O)[C@H](C(C)C)NC1=O [compound 199, Ac-hLeu-Y-C-V-G-K-hSer-D-V-Y-C-5FW-F-Thr-dLys(DOTA)-CONH2] (Ac-[hLeu]YCVGK[hSer]DVYC[Trp(5-F)]FT[dK](DOTA)-NH2; disulfide 3-11)

Same assay, conditions: SPR KD—37° C., 4Ig B7-H3; 37° C. flow cell temperature

Kd [nM]	Structure (SMILES)
< 1	CC(=O)N[C@@H](CCC(C)C)C(=O)N[C@@H](Cc1ccc(O)cc1)C(=O)N[C@H]1CSSC[C@@H](C(=O)N[C@@H](Cc2c[nH]c3ccc(F)cc23)C(=O)N[C@H](C(=O)N[C@H](C(=O)N[C@H](CCCCNC(=O)CN2CCN(CC(=O)O)CCN(CC(=O)O)CCN(CC(=O)O)CC2)C(N)=O)C(C)(C)O)[C@@H](C)c2ccccc2)NC(=O)[C@H](Cc2ccc(O)cc2)NC(=O)[C@H](C(C)C)NC(=O)[C@H](CC(=O)O)NC(=O)[C@H](CC2CCOCC2)NC(=O)[C@H](CC2CCNCC2)NC(=O)CNC(=O)[C@H](C(C)(C)C)NC1=O [compound 502, Ac-hLeu-Y-C-Tbg-G-PipAla-ThpA-D-V-Y-C-5FW-[(2S, 3S)beta-Me-Phe]-hydroxyVal-dLys(DOTA)-CONH2] (Ac-[hLeu]YC[Tle]G[Ala(piperidin-4-yl)][Ala(4-THP)]DVYC[Trp(5-F)][X1][Val(3-OH)][dK](DOTA)-NH2; disulfide 3-11)
1 to 10	CC(=O)N[C@@H](CCC(C)C)C(=O)N[C@@H](Cc1ccc(O)cc1)C(=O)N[C@H]1CSSC[C@@H](C(=O)N[C@@H](Cc2c[nH]c3cccc(Cl)c23)C(=O)N[C@@H](Cc2ccccc2)C(=O)N[C@H](C(=O)N[C@H](CCCCNC(=O)CN2CCN(CC(=O)O)CCN(CC(=O)O)CCN(CC(=O)O)CC2)C(=O)O)C(C)(C)O)NC(=O)[C@H](Cc2ccc(O)cc2)NC(=O)[C@H](C(C)C)NC(=O)[C@H](CC(=O)O)NC(=O)[C@H](CC2CCOCC2)NC(=O)[C@H](CC2CCNCC2)NC(=O)CNC(=O)[C@H](C(C)(C)C)NC1=O [compound 472, Ac-hLeu-Y-C-Tbg-G-PipAla-ThpA-D-V-Y-C-4ClW-F-hydroxyVal-dLys(DOTA)-COOH] (Ac-[hLeu]YC[Tle]G[Ala(piperidin-4-yl)][Ala(4-THP)]DVYC[Trp(4-Cl)]F[Val(3-OH)][dK](DOTA)-OH; disulfide 3-11)
1 to 10	CC(=O)N[C@@H](CCC(C)C)C(=O)N[C@@H](Cc1ccc(O)cc1)C(=O)N[C@H]1CSSC[C@@H](C(=O)N[C@@H](Cc2c[nH]c3ccc(F)cc23)C(=O)N[C@@H](Cc2ccccc2)C(=O)N[C@H](C(N)=O)C(C)(C)O)NC(=O)[C@H](Cc2ccc(O)cc2)NC(=O)[C@H](C(C)C)NC(=O)[C@H](CC(=O)O)NC(=O)[C@H](CC2CCOCC2)NC(=O)[C@H](CCCCN)NC(=O)CNC(=O)[C@H](C(C)(C)C)NC1=O [compound 404, Ac-hLeu-Y-C-Tbg-G-K-ThpA-D-V-Y-C-5FW-F-hydroxyVal-CONH2] (Ac-[hLeu]YC[Tle]GK[Ala(4-THP)]DVYC[Trp(5-F)]F[Val(3-OH)]-NH2; disulfide 3-11)
